Key:
CD18 = experiment: In vitro expression of adhesion molecules in peripheral blood mononuclear cells (flow cytometry); assay type: cell-based, human; settings: PBMNc of 10 healthy individuals, 48 hours culture; PHA 10 μg/ml, Anapsos 150 μg/ml; CONTROL 20%
Description: (§1) Peripheral blood was extracted from 10 healthy individuals and the mononuclear cells was separated via Fycoll-Hypaque density gradient centrifugation. The cells was cultivated in plane bottom microtiter plates, at a titer of 1 million/ml for 48 hours in a CO2 incubator, with phytohaemagglutinin (PHA) at concentrations of 0, 0.5, 2, 5 and 10 μg/ml and/or with Anapsos at concentrations between 0 to 5000 μg/ml. Finalized the culturing, the lymphocytes was analyzed by flow cytometry. The expression of determined adhesion molecules (CD11a, CD11b, CD18, CD54) was studied in relation to the different conditions of stimuli. En parallel to the culture as described above, a culture for 5 days was made under the same conditions of stimuli as above. Tritium thymidine was added 16 hours before finalizing the culture. Terminated the culture, the cells was washed with the Harvester and flashing liquid was incorporated into the cells. The cellular incorporation of tritium thymidine was measured via a β counter. During the culturing, the cells were photographed via an inverted microscope.

CD11b = experiment: as above; assay type: cell-based, human; settings: PBMNc of 10 healthy individuals, 48 hours culture; PHA 10 μg/ml, Anapsos 150 μg/ml; CONTROL 20%
Description: as §1

CD11a = experiment: as above; assay type: cell-based, human; settings: PBMNc of 10 healthy individuals, 48 hours culture; PHA 10 μg/ml, Anapsos 150 μg/ml; CONTROL 17%
Description: as §1

CD54 = experiment: as above; assay type: cell-based, human; settings: PBMNc of 10 healthy individuals, 48 hours culture; PHA 10 μg/ml, Anapsos 150 μg/ml; CONTROL 2%
Description: as §1

Female WISTAR rats = experiment: Anti-inflammatory activity in acute and chronic phase in rats (adjuvant + carrageenin foot volume, method of Mizushima); assay type: in vivo, rat; settings: oral, Phenylbutazone 80 mg/Kg, extract 1.25 g per kg
Description: A study of the anti-inflammatory activity has been made in acute and chronic phase in rats. The method used was as described by Mizushima. The reference medicament (Phenylbutizene, dose 80 mg/Kg) and the products of the study (dose equivalent to 1.25 g extract per kg weight of animal) were dissolved in a solution of 1% of CMC (carboxymethylcellulose) in distillated water (w/v) and Tween 80: distillated water (0.2:3.3-v/v), in order to be administrated orally. Six days after inoculation, by intradermal route of 0.1 mL of the complete adjuvant Freund (DIFCO) in the basal part of the tail, was injected 0.1 mL of a suspension of carrageenin type IV 2% (w/v) at the aponeurosis of the left back foot. The volume of the foot of the animal was measured, using a water pletismometer, immediately before the carrageenin injection (basal volume) and afterwards at 3, 5, and 7 hours (acute phase of the inflammation) and at 24, 48, 72, and 96 hours (chronic phase of inflammation). The products of the study, the phenylbutazone, and the carrier were administrated, orally and in portions of 6 animals, 1 hour before the carrageenin injection and at 24, 48 and 72 hours. The percentage of inhibition of the inflammation was calculated by comparing the increase of the volume of the animal foot in respect of its basal volume, for each group of animals and in relation to the control group. The control group was given the carrier of phenylbutazone and the products of the study. The statistical significance was evaluated via the T Student test.

| Compound | Expression, in vitro, of CD18 (CD18) [%] | Expression, in vitro, of CD11b (CD11b) [%] | Expression, in vitro, of CD11a (CD11a) [%] | Expression, in vitro, of CD54 (CD54) [%] | % INHIBITION OF THE INFLAMMATION 3 h (Female WISTAR rats; 3 h after carrageenin (acute phase)) [%] | % INHIBITION OF THE INFLAMMATION 5 h (Female WISTAR rats; 5 h after carrageenin (acute phase)) [%] | % INHIBITION OF THE INFLAMMATION 7 h (Female WISTAR rats; 7 h after carrageenin (acute phase)) [%] | % INHIBITION OF THE INFLAMMATION 24 h (Female WISTAR rats; 24 h after carrageenin (chronic phase)) [%] | % INHIBITION OF THE INFLAMMATION 48 h (Female WISTAR rats; 48 h after carrageenin (chronic phase)) [%] | % INHIBITION OF THE INFLAMMATION 72 h (Female WISTAR rats; 72 h after carrageenin (chronic phase)) [%] | % INHIBITION OF THE INFLAMMATION 96 h (Female WISTAR rats; 96 h after carrageenin (chronic phase)) [%] |
| --- | --- | --- | --- | --- | --- | --- | --- | --- | --- | --- | --- |
| phytohaemagglutinin [PHA] | 27 | 35 | 22 | 9 | – | – | – | – | – | – | – |
| CCCCC1C(=O)N(c2ccccc2)N(c2ccccc2)C1=O [Phenylbutazone] | – | – | – | – | 41 | 27 | 21 | 36 | 60 | 56 | 40 |

Source: patent US6706293B1, “Pharmaceutical composition capable of regulating the expression of adhesion molecules” (Especialidades Farmaceuticas Centrum, S.A., priority 1999, dated 2004)
